Laboratory results: ChEMBL document CHEMBL1139093, “1,3-diaminopropan-2-ol sulfonamides as potent and selective inhibitors of the glycine transporter type 1” (Bioorg Med Chem Lett, 2007)

What was measured:
[1] = biological target: T1, Sodium- and chloride-dependent glycine transporter 1 (Homo sapiens, UniProt P48067)
T1 sequence (P48067 whole entry): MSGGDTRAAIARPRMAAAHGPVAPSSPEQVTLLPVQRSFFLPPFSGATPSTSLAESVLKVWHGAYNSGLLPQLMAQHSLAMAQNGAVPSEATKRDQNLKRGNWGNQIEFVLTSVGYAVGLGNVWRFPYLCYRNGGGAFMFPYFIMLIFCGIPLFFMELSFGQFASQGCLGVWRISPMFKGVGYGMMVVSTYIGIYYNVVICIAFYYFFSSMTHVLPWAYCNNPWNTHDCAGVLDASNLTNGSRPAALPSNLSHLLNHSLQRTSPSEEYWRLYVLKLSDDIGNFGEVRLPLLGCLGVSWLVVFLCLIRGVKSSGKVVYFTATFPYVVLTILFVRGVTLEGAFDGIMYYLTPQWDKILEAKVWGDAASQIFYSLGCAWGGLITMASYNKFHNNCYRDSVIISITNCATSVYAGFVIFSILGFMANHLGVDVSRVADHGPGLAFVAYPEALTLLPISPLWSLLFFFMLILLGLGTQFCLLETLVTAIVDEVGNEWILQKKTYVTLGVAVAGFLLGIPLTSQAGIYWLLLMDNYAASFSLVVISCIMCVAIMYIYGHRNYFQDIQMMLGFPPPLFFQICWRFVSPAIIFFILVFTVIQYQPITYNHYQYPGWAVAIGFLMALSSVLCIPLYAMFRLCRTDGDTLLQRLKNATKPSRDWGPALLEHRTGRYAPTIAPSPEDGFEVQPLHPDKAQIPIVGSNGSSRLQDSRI
Description: (§1) Inhibition of [3H]glycine uptake in human GlyT1c expressed in HEK293 cells

[2] = Half life in rat at 5 mg/kg, sc; format: ADME, organism-based; set-up: dose 5 mg/kg, route subcutaneous; settings: in vivo
Cytochrome P450 2D6 = Cytochrome P450 2D6 (Homo sapiens, UniProt P10635); experiment: Binding affinity to CYP2D6; format: ADME
Rattus norvegicus [3] = experiment: AUC (0 to infinity) in rat plasma at 1 mg/kg, iv; format: ADME, organism-based; set-up: time infinity, dose 1 mg/kg, route intravenous; settings: in vivo
Brain = experiment: Drug level in rat brain at 5 mg/kg, sc; format: ADME, organism-based; set-up: dose 5 mg/kg, route subcutaneous; settings: in vivo
Rattus norvegicus [4] = experiment: AUC (0 to infinity) in rat at 5 mg/kg, sc; format: ADME, organism-based, Plasma; set-up: time infinity, dose 5 mg/kg, route subcutaneous; settings: in vivo
[5] = Cmax in rat at 5 mg/kg, sc; format: ADME, organism-based; set-up: dose 5 mg/kg, route subcutaneous; settings: in vivo
Liver microsomes [6] = experiment: Intrinsic clearance in rat liver microsome; format: ADME
Rattus norvegicus [7] = experiment: Bioavailability in rat at 5 mg/kg, sc; format: ADME, organism-based; settings: in vivo
[8] = Plasma clearance in rat at 1 mg/kg, iv; format: ADME, organism-based; set-up: dose 1 mg/kg, route intravenous
[9] = AUC (0 to infinity) in rat brain at 1 mg/kg, iv; format: ADME, organism-based; set-up: time infinity, dose 1 mg/kg, route intravenous
Liver microsomes [10] = experiment: Intrinsic clearance in human liver microsome; format: ADME
[11] = Oral bioavailability in rat at 5 mg/kg; format: ADME, organism-based; settings: in vivo
[12] = Half life in rat at 1 mg/kg, iv; format: ADME, organism-based; set-up: dose 1 mg/kg, route intravenous; settings: in vivo
[13] = biological target: T1, Sodium- and chloride-dependent glycine transporter 1; settings: hek293
Description: as §1

Chain of Cytochrome P450 2D6 (P10635 whole entry): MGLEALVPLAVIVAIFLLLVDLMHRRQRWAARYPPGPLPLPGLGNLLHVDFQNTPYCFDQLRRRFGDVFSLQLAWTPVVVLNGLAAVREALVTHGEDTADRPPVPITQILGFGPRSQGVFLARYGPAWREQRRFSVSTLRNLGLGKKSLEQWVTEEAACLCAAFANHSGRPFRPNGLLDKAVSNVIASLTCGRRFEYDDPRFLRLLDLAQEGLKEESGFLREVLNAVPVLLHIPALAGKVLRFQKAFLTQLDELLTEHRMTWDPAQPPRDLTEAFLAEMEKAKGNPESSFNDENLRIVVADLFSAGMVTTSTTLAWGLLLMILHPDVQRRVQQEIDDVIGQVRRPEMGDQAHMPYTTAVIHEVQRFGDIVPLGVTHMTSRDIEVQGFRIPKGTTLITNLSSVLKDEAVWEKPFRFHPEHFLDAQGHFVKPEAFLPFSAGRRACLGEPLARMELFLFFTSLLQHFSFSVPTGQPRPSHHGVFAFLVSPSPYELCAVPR

IC50 [1] [nM] | SMILES | other results
200 | CC(C)(C)C1CCCN1C[C@@H](O)CNS(=O)(=O)c1cccc2ccccc12 (single isomer, unassigned; isomer B) | 
 | CC[C@H]1CCCCN1C[C@@H](O)CNS(=O)(=O)c1cccc2ccccc12 | half-life [2]: 54 min; Activity (Cytochrome P450 2D6): 1.2 µM; AUC (Rattus norvegicus [3]): 952 ng·h/mL; Drug uptake (Brain): 564 ng/mL; AUC (Rattus norvegicus [4]): 1731 ng·h/mL; Cmax [5]: 564 ng/mL; clearance (Liver microsomes [6]): 8 mL/min/g; F (Rattus norvegicus [7]): 95%; clearance [8]: 18 mL/min/kg; AUC(0-inf) [9]: 587 ng·h/mL; clearance (Liver microsomes [10]): 8 mL/min/g; bioavailability [11]: 4%; half-life [12]: 60 min
3980 | CC1CCCN(C[C@@H](O)CNS(=O)(=O)c2cccc3ccccc23)C1 (stereo partly drawn) | 
2510 | CC(C)CC1CCCN1C[C@@H](O)CNS(=O)(=O)c1cccc2ccccc12 (single isomer, unassigned; isomer B) | 
6310 | O=S(=O)(NC[C@H](O)CN1CCCC1C1CCCCC1)c1cccc2ccccc12 (single isomer, unassigned; isomer B) | 
7940 | CC(C)(C)C1CCCN1C[C@@H](O)CNS(=O)(=O)c1cccc2ccccc12 (single isomer, unassigned; isomer A) | 
200 | CC(C)C1CCCN1C[C@@H](O)CNS(=O)(=O)c1cccc2ccccc12 (single isomer, unassigned; isomer B) | 
1000 | CC(C)C1CCCN1C[C@@H](O)CNS(=O)(=O)c1cccc2ccccc12 (single isomer, unassigned; isomer A) | 
3980 | CC1CC(C)N(C[C@@H](O)CNS(=O)(=O)c2ccc3ccccc3c2)C1 (stereo partly drawn) | 
12600 | CC1CCCN1C[C@H](O)CNS(=O)(=O)c1cccc2ccccc12 (stereo partly drawn) | 
1260 | CCC1CCCN1C[C@@H](O)CNS(=O)(=O)c1cccc2ccccc12 (single isomer, unassigned; isomer A) | 
631 | CC(C)C1CCCCN1C[C@@H](O)CNS(=O)(=O)c1cccc2ccccc12 (stereo in doubt) | 
316 | CC1CCCCN1C[C@@H](O)CNS(=O)(=O)c1cccc2ccccc12 (stereo partly drawn) | 
501 | O=S(=O)(NC[C@H](O)CN1CCCC1C1CC1)c1cccc2ccccc12 (single isomer, unassigned; isomer B) | 
794 | CC1CCC(C)N1C[C@@H](O)CNS(=O)(=O)c1cccc2ccccc12 (stereo partly drawn) | 
1000 | CCC1CCC(C)N(C[C@@H](O)CNS(=O)(=O)c2cccc3ccccc23)C1 (stereo partly drawn) | 

IC50 [1] [nM] | SMILES | other results
2510 | CC1CC(C)N(C[C@@H](O)CNS(=O)(=O)c2cccc(Cl)c2Cl)C1 (stereo partly drawn) | 
 | O=S(=O)(NC[C@H](O)CN1CCCC1C1CCCCC1)c1cccc2ccccc12 (single isomer, unassigned; isomer A) | Log IC50 [13]: -5.2
7940 | CC1CCC(C)N1C[C@H](O)CNS(=O)(=O)c1cccc2ccccc12 (stereo partly drawn) | 
3160 | CC1CC(C)N(C[C@@H](O)CNS(=O)(=O)c2cc(Cl)sc2Cl)C1 (stereo partly drawn) | 
1260 | CCCN(C[C@@H](O)CNS(=O)(=O)c1cccc2ccccc12)C(C)CC (stereo partly drawn) | 
1580 | O=S(=O)(NC[C@H](O)CN1CCCC1C1CC1)c1cccc2ccccc12 (stereo in doubt) | 
1580 | CCC1CCCN1C[C@@H](O)CNS(=O)(=O)c1cccc2ccccc12 (single isomer, unassigned; isomer B) | 
3160 | CCc1cc(Br)ccc1S(=O)(=O)NC[C@H](O)CN1CC(C)CC1C (stereo partly drawn) | 
6310 | CC(C)CC1CCCN1C[C@@H](O)CNS(=O)(=O)c1cccc2ccccc12 (single isomer, unassigned; isomer A) | 
1000 | CCCN(C[C@@H](O)CNS(=O)(=O)c1cccc2ccccc12)C(C)(C)C | 
1000 | CC1CCCN1C[C@@H](O)CNS(=O)(=O)c1cccc2ccccc12 (stereo partly drawn) | 
3160 | Cc1cc(S(=O)(=O)NC[C@H](O)CN2CC(C)CC2C)c(C)cc1Cl (stereo partly drawn) | 
3160 | O=S(=O)(NC[C@H](O)CN1CCCCC1)c1cccc2ccccc12 | 
3980 | CC(C)C1CCCCN1C[C@@H](O)CNS(=O)(=O)c1cccc2ccccc12 (single isomer, unassigned; isomer A) | 
3160 | O=S(=O)(NC[C@H](O)CN1CCCC1)c1cccc2ccccc12 | 
